“Also recorded” adds a separate entry of the source. Square brackets hold non-standard residues; d marks the D form. Primed or numbered codes have the meaning given here. Ends that are not written are not given here. PEG4′ = four-unit PEG spacer; PEG2′ = two-unit PEG spacer; Ahx = NCCCCCC(=O)O; Ava = NCCCCC(=O)O; βAla = NCCC(=O)O
Tested on: mice or rat models
Experiment: Summary of cargo delivery to targeted organ (Table 1)
Assay type: in vivo
Conditions: cargoes and route (IV, IM, SQ, NB) per peptide as listed in Table 1
Source text: Table 1 lists a summary of cell-penetrating peptides that have been proven successful in delivering various cargo molecules to on or more targeted organ (e.g., by intravenous (IV), intramuscular (IM), or subcutaneous (SQ) administration, or intratraccheal instillation or nebulization (NB)) in mice or rat models.

Substance	Targeted Organ
ASSLNIA-Ava-KWWERWWREWPRKRR (ASSLNIAKWWERWWREWPRKRR; Ava linker; VARIANT 7, 8 Linked by a 5-amino pentanoic acid) [VEPEP-3C]	Muscle
Ac-(PEG)2-βA-KWRSALWRWRLWRVRSWSR-NH2 ({Ac-PEG2′}-[βAla]KWRSALWRWRLWRVRSWSR-NH2) [ADGN-100-PEG2]	Lung:Liver/; also recorded: Spleen
Ac-(PEG)2-βALWRALWRLWRSLWRLLWKA-NH2 ({Ac-PEG2′}-[βAla]LWRALWRLWRSLWRLLWKA-NH2) [ADGN-106-PEG2]	Lung/Kidney/; also recorded: Spleen
Ac-CKRAVRWWLRWASRWFSRWAWWR [VEPEP-9B]	Heart
Ac-GYVS-Ava(CH2)2-ALWRALWRLWRSLWRLLWKA-NH2 [ADGN-106 hydro-4]	Brain/Kidney
Ac-SYTSSTM-ava-KWWERWWREWPRKRR (SYTSSTMKWWERWWREWPRKRR; N-acetyl, Ava linker; VARIANT 1 N-terminal acetylation; VARIANT 7, 8 Linked by a 5-amino pentanoic acid) [VEPEP-3E]	Brain
Ac-YIGSR-(PEG)2-βA-KWRSALWRWRLWRVRSWSR-NH2 (Ac-YIGSR[PEG2′][βAla]KWRSALWRWRLWRVRSWSR-NH2) [ADGN-100-HYPEG2]	Lung
Ac-YIGSR-(PEG)4-βA-KWRSALWRWRLWRVRSWSR-NH2 (Ac-YIGSR[PEG4′][βAla]KWRSALWRWRLWRVRSWSR-NH2) [ADGN-100-HYPEG4]	Lung
Ac-YIGSR-A-KWRSALWRWRLWRVRSWSR-NH2 (Ac-YIGSR[βAla]KWRSALWRWRLWRVRSWSR-NH2; SMILES CC[C@H](C)[C@H](NC(=O)[C@H](Cc1ccc(O)cc1)NC(C)=O)C(=O)NCC(=O)N[C@@H](CO)C(=O)N[C@@H](CCCNC(=N)N)C(=O)NCCC(=O)N[C@@H](CCCCN)C(=O)N[C@@H](Cc1c[nH]c2ccccc12)C(=O)N[C@@H](CCCNC(=N)N)C(=O)N[C@@H](CO)C(=O)N[C@@H](C)C(=O)N[C@@H](CC(C)C)C(=O)N[C@@H](Cc1c[nH]c2ccccc12)C(=O)N[C@@H](CCCNC(=N)N)C(=O)N[C@@H](Cc1c[nH]c2ccccc12)C(=O)N[C@@H](CCCNC(=N)N)C(=O)N[C@@H](CC(C)C)C(=O)N[C@@H](Cc1c[nH]c2ccccc12)C(=O)N[C@@H](CCCNC(=N)N)C(=O)N[C@H](C(=O)N[C@@H](CCCNC(=N)N)C(=O)N[C@@H](CO)C(=O)N[C@@H](Cc1c[nH]c2ccccc12)C(=O)N[C@@H](CO)C(=O)N[C@@H](CCCNC(=N)N)C(N)=O)C(C)C) [ADGN-100-Hydro]	Lung/Kidney
Ac-YIGSR-Ahx-ALWRALWRLWRSLWRLLWKA-NH2 (Ac-YIGSR[Ahx]ALWRALWRLWRSLWRLLWKA-NH2; SMILES CC[C@H](C)[C@H](NC(=O)[C@H](Cc1ccc(O)cc1)NC(C)=O)C(=O)NCC(=O)N[C@@H](CO)C(=O)N[C@@H](CCCNC(=N)N)C(=O)NCCCCCC(=O)N[C@@H](C)C(=O)N[C@@H](CC(C)C)C(=O)N[C@@H](Cc1c[nH]c2ccccc12)C(=O)N[C@@H](CCCNC(=N)N)C(=O)N[C@@H](C)C(=O)N[C@@H](CC(C)C)C(=O)N[C@@H](Cc1c[nH]c2ccccc12)C(=O)N[C@@H](CCCNC(=N)N)C(=O)N[C@@H](CC(C)C)C(=O)N[C@@H](Cc1c[nH]c2ccccc12)C(=O)N[C@@H](CCCNC(=N)N)C(=O)N[C@@H](CO)C(=O)N[C@@H](CC(C)C)C(=O)N[C@@H](Cc1c[nH]c2ccccc12)C(=O)N[C@@H](CCCNC(=N)N)C(=O)N[C@@H](CC(C)C)C(=O)N[C@@H](CC(C)C)C(=O)N[C@@H](Cc1c[nH]c2ccccc12)C(=O)N[C@@H](CCCCN)C(=O)N[C@@H](C)C(N)=O) [ADGN-106 hydro-7]	Lung/Tumor
KSYDTY-ava-ALRWLRWASRWFSRWAWR (KSYDTY[Ava]ALRWLRWASRWFSRWAWR) [VEPEP-9A]	Brain/Lymphnode
KSYDTYAAETRRWASRWFSRWAWWR (not fully specified (N-terminus, C-terminus)) [VEPEP-9D]	Brain/Lymphnode
LSSRLDA-Ava-KWWERWWREWPRKRR (LSSRLDAKWWERWWREWPRKRR; Ava linker; VARIANT 7, 8 Linked by a 5-amino pentanoic acid) [VEPEP-3D]	Heart/Muscle

Source: US12357695B2, “Peptides and nanoparticles for intracellular delivery of molecules” (AADIGEN, LLC, priority 2019, dated 2025)
